Test results: patent US8906678B2, “Use of markers of undifferentiated pluripotent stem cell” (Agency for Science, Technology and Research, priority 2010, dated 2014)
Like-named read-outs stand apart in the source and are kept apart here. Bridge positions count the residues as written; N and C are the ends. Square brackets hold non-standard residues; d marks the D form. Peptide text beside a SMILES is read from it.

Experiments:
Assay type in all cases: cell-based, human
[1] = system: HES-3 cells; details: for killing efficiency on hESC, D-form vs L-form: 100 μm, after 120 hr; for relative viability: 100 μM
Protocol: Viability was determined using Propidium Iodide (PI) assay, where cells were trypsinized and resuspended in binding buffer (10 mM HEPES/NaOH, 140 mM NaCl and 2.5 mM CaCl2) containing 1.25 mg/ml of PI. The cells were incubated at room temperature for 15 min before analyzing on the flow cytometer.

[2] = system: PHB surface expression in HES-3; test: SU5402 effect on PHB surface expression, flow cytometry, HES-3; details: 20 μM or 30 μM SU5402 for 7 days
Protocol: Cells were harvested as single cell suspensions using trypsin, resuspended at 2×10^5 cells per 10 μl volume in 1% bovine serum albumin (BSA)/PBS and incubated for 45 min with each mAb clone (100 ul culture supernatant) or monoclonal TRA-1-60 antibody. (12.5 ug/ml; Chemicon, Temecula, Calif. http://www.chemicon.com). Cells were then washed with cold 1% BSA/PBS, and further incubated for 15 min with 1:500 dilution of fluorescein isothiocyanate (FITC)-conjugated goat α-mouse antibody (DAKO, Glostrup, Denmark, http://www.dako.com). After incubation, the cells were again washed and resuspended in 1% BSA/PBS for analysis on a FACScan (Becton, Dickinson and Company, Franklin Lakes, N.J., http://www.bd.com).
To observe the effect of SU5402 on expression of PHB in hESC, cells were seeded and allowed to adhere for 24 h before culturing them in the presence of SU5402 at concentrations of 20 μM or 30 μM for 7 days. Control cells were cultured similarly in the presence of the vehicle control, DMSO instead. Cells were subsequently harvested for flow cytometry analysis.

[3] = system: MAPK pathway (ERK phosphorylation) in HES-3 cultures; test: SU5402 inhibitor study, ERK phosphorylation by western blot; details: 20 μM and 30 μM SU5402 for 2 h, then 10 ng/ml FGF-2 for 15 min
Protocol: hESC cultured under various conditions were lysed and clarified via centrifugation before quantifying with the DC protein assay (Biorad, http://www.bio-rad.com). 20 ug of total protein from each condition was resolved and transferred onto membrane as described above. The resolved proteins were then immunoblotted with anti-actin (1:10,000; Abcam, http://www.abcam.com), anti-total ERK (1:1000; Sigma Aldrich) and anti-phospho-ERK (1:5000; Sigma Aldrich) antibodies. The protein bands were visualized using either ECL Plus detection reagent (Amersham, GE Healthcare, UK, http://www.gehealthcare.com) or LI-COR ODYSSY imaging system (LI-COR Biosciences, Nebraska, http://www.licor.com).
Efficacy of SU5402 (Calbiochem, San Diego, USA, http://www.emdbiosciences.com) was determined by culturing hESC in absence of FGF-2 for 5 days, followed by incubating with 20 μM or 30 μM of SU5402 for 2 h before inducing the treated cultures with FGF-2 for 15 min. Cells were then lysed and the lysates were analyzed using western blot analysis.

[4] = system: ESIMR90 cells; test: Detection of caspase-3 activity / annexin V, ESIMR90; details: 100 μM peptide, 24 hours
Protocol: (§1) To detect caspase-3 activity in treated hESC, cells grown in 24 wells were incubated with 5 μM of NucView 488 Caspase-3 substrate (Biotium Inc, www.biotium.com) and sulforhodamine 101-annexin V (1.25 ug/ml; Biotium Inc) at room temperature for 30 min. Cells were then washed once with PBS and examined under the Olympus IX70 fluorescence microscope (Olympus, http://www.olvmousamerica.com). For flow cytometry analysis, hESC was trypinsized before resuspending cells in PBS containing caspase-3 substrate and annexin V reagents.

[5] = system: hESC; test: TUNEL assay (nuclear DNA fragmentation); details: after 48 hours
Protocol: Nuclear DNA fragmentation was measured via a TUNEL (Terminal deoxynucleotidyl transferase dUTP nick end labeling) assay kit (Promega, Madison, Wis., http://www.promega.com). Cells were harvested from each condition and fixed in 1% paraformaldehyde for 20 min on ice before permeabilizing them with ice-cold 70% ethanol at […] overnight. Subsequently, the cells were washed with PBS and incubated in 80 μl of equilibration buffer for 5 min at room temperature. The cells were pelleted down and resuspended in 50 μl of incubation buffer containing nucleotides and rTdT enzyme, followed by incubation at 37° C. for 1 h. The reaction was quenched using 20 mM EDTA and cells were resuspended in 0.1% Triton/0.5% BSA/PBS before analyzing on the flow cytometer. The green fluorescence of fluorescein-12-dUTP was detected in the FL1 channel.

[6] = system: HES-3; test: Growth curve of HES-3 cultures (viable cell number vs time)
Protocol: Human embryonic stem cell line, HES-3, was obtained from ES Cell International (ESI, Singapore, http://escellinternational.com). The cells were cultured at 37° C., 5% CO2, on matrigel-coated culture dishes supplemented with conditioned media from immortalized mouse embryonic fibroblast, ΔE-MEF. The media used for culturing hESC was Knockout (KO) media containing 85% KO-DMEM (DMEM, Dulbecco's modified Eagle's medium) supplemented with 15% KO serum replacer, 1 mM L-glutamine, 1% non-essential amino acids, 0.1 mM 2-mercaptoethanol, and 10 ng/ml basic fibroblast growth factor (FGF-2; Invitrogen, Carlsbad, Calif., http://www.invitrogen.com). The cells were treated with collagenase IV (200 U/ml) or TrypLE Express solution (Invitrogen) and dissociated into small clumps or single cells respectively by repeated pipetting. The cells were then reseeded onto matrigel-coated plates at a passage ratio 1:4.
(§2) HES-3 and IMR-90 cells were cultured in 24 wells culture dishes supplemented with either 100 μM PHB-targeting pro-apoptotic peptide (CKGGRAKDC-GG-D(KLAKLAK)2 (SEQ ID NO:3)>90% purity; Sigma Aldrich) or 0.2% DMSO as control. Cultures were induced every 48 h and harvested daily for cell count. Cell numbers were determined using NucleoCounter according to the manufacturer's recommendations (Chemometec, Denmark, http://http://www.chemometec.com). The growth curves were generated by plotting viable cell number vs time. Specific growth rate, μ, was calculated as the gradient of the exponential phase, determined by plotting ln(cell number) vs time. Triplicates were done for each set of data.

[7] = system: IMR-90 cells; test: Growth curve of IMR-90 cells (specificity control)
Protocol: Human fetal lung fibroblast cell line, IMR-90 (CCL-186), was purchased from American Type Culture Collection and cultured according to the supplier's instructions.
as §2

[8] = system: hESC; test: Detection of caspase-3 activity / annexin V, hESC; details: 100 μM peptide, 24 hours
Protocol: as §1

[9] = system: ESIMR90
Protocol: Induced pluripotent stem cell line, ESIMR90, derived from lung fibroblasts, was obtained from James Thomson (18). ESIMR90 was cultured as per hESC cultures, with the exception of supplementing cultures with 100 ng/ml of FGF-2. For FGF-2 starved cultures, cells were maintained without FGF-2 as mentioned above. Viability was determined using Propidium Iodide (PI) assay, where cells were trypsinized and resuspended in binding buffer (10 mM HEPES/NaOH, 140 mM NaCl and 2.5 mM CaCl2) containing 1.25 mg/ml of PI. The cells were incubated at room temperature for 15 min before analyzing on the flow cytometer.

[10] = 100 μM of peptide, clump cultures

`CC(C)C[C@H](NC(=O)[C@H](CCCCN)NC(=O)CNC(=O)CNC(=O)[C@H](CS)NC(=O)[C@H](CC(=O)O)NC(=O)[C@H](CCCCN)NC(=O)[C@H](C)NC(=O)[C@H](CCCNC(=N)N)NC(=O)CNC(=O)CNC(=O)[C@H](CCCCN)NC(=O)[C@@H](N)CS)C(=O)N[C@@H](C)C(=O)N[C@@H](CCCCN)C(=O)N[C@@H](CC(C)C)C(=O)N[C@@H](C)C(=O)N[C@@H](CCCCN)C(=O)N[C@@H](CCCCN)C(=O)N[C@@H](CC(C)C)C(=O)N[C@@H](C)C(=O)N[C@@H](CCCCN)C(=O)N[C@@H](CC(C)C)C(=O)N[C@@H](C)C(=O)N[C@@H](CCCCN)C(=O)O` [L-form peptide] (H-CKGGRAKDCGGKLAKLAKKLAKLAK-OH; N-terminus and C-terminus assumed) was tested, and the “killing efficiency on hESC, D-form vs L-form” value [1] was “comparable” and the hESC viability ([1]; human, 120 hr) was less than 5%.
With `Cc1c[nH]c(/C=C2\C(=O)Nc3ccccc32)c1CCC(=O)O` [SU5402] the “surface expression of PHB” value [2] was “down-regulated surface expression of PHB” and the ERK phosphorylation [3] was “suppression of ERK phosphorylation”.
For `CC(C)C[C@@H](NC(=O)[C@@H](CCCCN)NC(=O)CNC(=O)CNC(=O)[C@@H]1CSSC[C@H](N)C(=O)N[C@@H](CCCCN)C(=O)NCC(=O)NCC(=O)N[C@@H](CCCNC(=N)N)C(=O)N[C@@H](C)C(=O)N[C@@H](CCCCN)C(=O)N[C@@H](CC(=O)O)C(=O)N1)C(=O)N[C@H](C)C(=O)N[C@H](CCCCN)C(=O)N[C@H](CC(C)C)C(=O)N[C@H](C)C(=O)N[C@H](CCCCN)C(=O)N[C@H](CCCCN)C(=O)N[C@H](CC(C)C)C(=O)N[C@H](C)C(=O)N[C@H](CCCCN)C(=O)N[C@H](CC(C)C)C(=O)N[C@H](C)C(=O)N[C@H](CCCCN)C(=O)O` [peptide, CKGGRAKDC-GG-D(KLAKLAK)2] (H-CKGGRAKDCGG[dK][dL][dA][dK][dL][dA][dK][dK][dL][dA][dK][dL][dA][dK]-OH; disulfide 1-9; N-terminus and C-terminus assumed), the “population exhibiting elevated caspase-3 activity” value ([4]; flow cytometry) was 66.3%, the “caspase-3 substrate and Annexin V staining” value ([4]; fluorescence microscopy) was “exhibited caspase-3 activity and phosphatidylserine (PS) externalization” and the “DNA fragmentation compared to the control” value [5] was “significant increase in DNA fragmentation”. For the same compound, the “killing efficiency on hESC, D-form vs L-form” value [1] was “comparable”, the “toxic effect on hESC” value ([1]; concentrations less than 100 μM) was “minimal” and the “time of incubation to cell death via apoptosis” value ([1]; hESC) was no more than 48 h. For the same compound, the relative viability ([1]; human, 24 h) was 84.7%, the relative viability ([1]; human, 72 h) was 52.2% and the relative viability ([1]; human, 120 h) was 21.7%. For the same compound, the viability ([1]; human, 120 hr, 150 µM) was less than 10%, the viability ([1]; human, 120 hr, 200 µM) was less than 10% and the “apoptotic killing effect, dose dependence” value ([1]; titrated over 20 μM to 200 μM) was “concentration-dependent”. The “initiation of death phase” value [6, 10] was 70 h, the td [6, 10] was 61.3 h and the specific growth rate ([6]; 100 μM of peptide, clump cultures, over 7 days) was 0.0113 h⁻¹. For the same compound, the “growth compared to the control” value ([6]; peptide supplemented to TrypLE passaged cultures) was “minimal growth”, the “growth rate μ” value ([7]; 100 μM of peptide) was 0.0167 h⁻¹ and the cell killing effect ([7]; IMR-90 cells, which do not express PHB on membrane) was “minimal cell killing effect”. For the same compound, the “population exhibiting elevated caspase-3 activity” value ([8]; flow cytometry) was 71.1%, the “caspase-3 substrate and Annexin V staining” value ([8]; fluorescence microscopy) was “exhibited caspase-3 activity and phosphatidylserine (PS) externalization” and the “time of incubation to cell death via apoptosis” value ([9]; IPSCs) was no more than 48 h. The relative viability ([9]; human, 72 h) was 33.4%.
